Assay results as given in patent US10604526B2, “Chemokine receptor modulators and uses thereof” (RAPT THERAPEUTICS, INC., priority 2016, dated 2020).

Each compound was assayed against T1, hCCR4 (Homo sapiens, UniProt P51679) (assay: Calcium flux assay). Details: Chem5-hCCR4 cells, CCL22 at EC80 of 1.5 nM, FLIPR Calcium 6 dye; read-out: Potency (IC50).
T1 sequence (P51679 1-360): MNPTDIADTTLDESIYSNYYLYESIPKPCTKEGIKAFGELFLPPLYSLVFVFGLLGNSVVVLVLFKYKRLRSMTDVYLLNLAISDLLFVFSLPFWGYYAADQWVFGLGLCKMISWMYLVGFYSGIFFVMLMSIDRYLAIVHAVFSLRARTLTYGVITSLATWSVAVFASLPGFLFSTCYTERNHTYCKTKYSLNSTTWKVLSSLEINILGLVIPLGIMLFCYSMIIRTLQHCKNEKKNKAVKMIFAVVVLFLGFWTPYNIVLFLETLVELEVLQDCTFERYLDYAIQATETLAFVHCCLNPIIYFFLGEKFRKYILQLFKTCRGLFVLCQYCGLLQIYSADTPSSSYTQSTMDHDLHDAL
Assay type: cell-based
Outline: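 Chem5 cells expressing hCCR4 were serum-starved for 2 h, loaded with Calcium 6 dye plus 2.5 mM probenecid, then given compound for 1 h at 37 °C (0.5% DMSO). CCL22 was added from a 7.5 nM working solution (5× EC80 of 1.5 nM). IC50 came from ΔF/Fmin (485/525 nm) by 4-parameter fit.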
`CC(O)CN1CCC[C@@H](C2CN(c3cnc4c(C#N)nn([C@H](C)c5ccc(Cl)cc5Cl)c4n3)C2)C1` (single isomer, unassigned) [Example 30] gave an IC50 of under 100 nM. Compound `CC(O)CN1CCC[C@@H](C2CN(c3cnc4c(C#N)nn([C@H](C)c5ccc(Cl)cc5Cl)c4n3)C2)C1` (single isomer, unassigned) [Example 31] has an IC50 of under 100 nM. Work on `C[C@H](c1ccc(Cl)cc1Cl)n1nc(C(N)=O)c2ncc(N3CC([C@@H]4CCCN(CCCC(=O)O)C4)C3)nc21` (single isomer, unassigned) [Example 32] yielded an IC50 of 100 to 500 nM. `C[C@H](c1ccc(Cl)cc1Cl)n1nc(C(N)=O)c2ncc(N3CC([C@H]4CCCN(CCCC(=O)O)C4)C3)nc21` (single isomer, unassigned) [Example 33] was tested, and the IC50 was under 100 nM. With `C[C@H](c1ccc(Cl)cc1Cl)n1nc(C#N)c2ncc(N3CC(C4CCCN(CCO)C4)C3)nc21` (single isomer, unassigned) [Example 35] the IC50 was under 100 nM. `CC(c1ccc(Cl)cc1Cl)n1nc(C#N)c2ncc(N3CC([C@@H]4CCCN(CCO)C4)C3)nc21` (single isomer, unassigned) [Example 36] gave an IC50 of under 100 nM. For `Cc1nn([C@H](C)c2ccc(Cl)cc2Cl)c2nc(N3CC([C@H]4CCCN(CCO)C4)C3)ncc12` (single isomer, unassigned) [Example 38], the IC50 was under 100 nM. `Cc1nn([C@H](C)c2ccc(Cl)cc2Cl)c2nc(N3CC([C@@H]4CCCN(CCO)C4)C3)ncc12` (single isomer, unassigned) [Example 39] showed an IC50 of over 500 nM. In the case of `C[C@H](c1ccc(Cl)cc1Cl)n1nc(C(F)(F)F)c2ncc(N3CC([C@H]4CCCN(CCO)C4)C3)nc21` (single isomer, unassigned) [Example 43], the IC50 is reported as under 100 nM. Work on `C[C@H](c1ccc(Cl)cc1Cl)n1nc(C(F)(F)F)c2ncc(N3CC([C@@H]4CCCN(CCO)C4)C3)nc21` (single isomer, unassigned) [Example 44] yielded an IC50 of 100 to 500 nM. `CC(C)C(=O)NCCN1CCC[C@@H](C2CN(c3cnc4c(C(F)(F)F)nn([C@H](C)c5ccc(Cl)cc5Cl)c4n3)C2)C1` (single isomer, unassigned) [Example 51] was tested, and the IC50 was 100 to 500 nM. `CC(C)C(=O)NCCN1CCC[C@H](C2CN(c3cnc4c(C(F)(F)F)nn([C@H](C)c5ccc(Cl)cc5Cl)c4n3)C2)C1` (single isomer, unassigned) [Example 52] showed an IC50 of under 100 nM. `CC(=O)NCCN1CCC[C@@H](C2CN(c3cnc4c(C(F)(F)F)nn([C@H](C)c5ccc(Cl)cc5Cl)c4n3)C2)C1` (single isomer, unassigned) [Example 53] was tested, and the IC50 was 100 to 500 nM. Work on `CC(=O)NCCN1CCC[C@H](C2CN(c3cnc4c(C(F)(F)F)nn([C@H](C)c5ccc(Cl)cc5Cl)c4n3)C2)C1` (single isomer, unassigned) [Example 54] yielded an IC50 of under 100 nM. `CNC(=O)CCCN1CCC[C@@H](C2CN(c3cnc4c(C#N)nn([C@H](C)c5ccc(Cl)cc5Cl)c4n3)C2)C1` (single isomer, unassigned) [Example 68] was tested, and the IC50 was 100 to 500 nM. `CNC(=O)CCCN1CCC[C@H](C2CN(c3cnc4c(C#N)nn([C@H](C)c5ccc(Cl)cc5Cl)c4n3)C2)C1` (single isomer, unassigned) [Example 69] showed an IC50 of under 100 nM. Compound `C[C@H](c1ccc(Cl)cc1Cl)n1nc(C#N)c2ncc(N3CC([C@@H]4CCCN(CC(C)(C)O)C4)C3)nc21` (single isomer, unassigned) [Example 70] has an IC50 of under 100 nM. `C[C@H](c1ccc(Cl)cc1Cl)n1nc(C#N)c2ncc(N3CC([C@H]4CCCN(CC(C)(C)O)C4)C3)nc21` (single isomer, unassigned) [Example 71] gave an IC50 of under 100 nM. `CCCN1CCC[C@@H](C2CN(c3cnc4c(C#N)nn([C@H](C)c5ccc(Cl)cc5Cl)c4n3)C2)C1` (single isomer, unassigned) [Example 72] was tested, and the IC50 was 100 to 500 nM. `CCCN1CCC[C@H](C2CN(c3cnc4c(C#N)nn([C@H](C)c5ccc(Cl)cc5Cl)c4n3)C2)C1` (single isomer, unassigned) [Example 73] gave an IC50 of under 100 nM.
